In patent publication US6947790B2, “Neurocognitive function EEG measurement method and system” (priority 2000, dated 2005):
Read-outs that look alike come from different tables or passages of the source.

Assays:
[1] = test system: healthy adults; assay: Chronic AED administration study: NCFC; format: in vivo, human; conditions: one subject, after 30 days of chronic treatment, FIG. 14
Source text: In Progress Study of Effects of Chronic AED Administration. Although their mechanisms of action are varied and incompletely understood, AEDs as a class tend to limit sustained repetitive firing of neurons by antagonizing mechanisms of excitation or by agonizing mechanisms of inhibition. It is likely that such effects have a measurable influence on task-related EEG or ERP parameters. Such biomarkers are being identified through exploratory analyses of data from subjects taking AEDs for 4 weeks. The study, which is being performed by Drs. F. Gilliam and K. Meador, is a randomized, double blind, crossover comparison of the cognitive and behavioral effects of chronic administration of the AEDs lamotrigine and topiramate in healthy adults. Lamotrigine and topiramate are newer AEDs that have been reported to differ in their cognitive side effects.
The study is designed such that subjects are randomized in a first treatment period to receive either lamotrigine or topiramate for 12 weeks (7 weeks of dose escalation followed by 4 weeks of maintenance therapy and then 1 week of tapering off the drug). […] In each test session, subjects have their EEG recorded from 8 scalp electrodes (positioned at AFz, F3, F4, C3, C4, Pz, PO3, PO4) and their EOG recorded from electrodes placed on the supraorbital ridge and outer canthus of each eye, while they perform the WM task and while they rest quietly.

[2] = in vivo; cited from earlier work
[3] = test system: healthy subjects; assay: Experiment 5: NCFC index; format: in vivo, human; conditions: FIG. 11
Source text: The resulting function is structured such that improvement in cognitive function in response to some intervention results in a positive deviation of the index, and impairment in cognitive function in response to some intervention results in a negative deviation of the index. […] In the first and second periods following drug ingestion the change in index values were highly significant across the group of subjects (t(9)=−4.02, p<0.004 and t(9)=−3.54, p<0.007 for t1 and t2 respectively), with some recovery in the later test periods (p's<0.05 for the rest of the test session).

[4] = test system: healthy subjects; assay: Experiment 5: working memory task performance
Procedure: (§1) Experiment: The motivation behind this experiment was to evaluate whether EEG and/or behavioral indices could be used to detect cognitive side effects of a common psychiatric medication. […] It acts primarily on the GABAergic system, enhancing the inhibitory effects of this neurotransmitter. […] It adversely affects memory functions and psychomotor performance following acute administration, and its CNS effects can be detected in EEG measures. […] The experiment was performed according to a double blind, fully counterbalanced design, and all participation was fully informed and voluntary.
(§2) They then participated in three sessions: a training session and two experimental sessions. In the initial session, following informed consent procedures, subjects were familiarized with the recording methods and apparatus, and given a sham (placebo) drug dose. They then practiced the tasks until performance levels reached asymptote. […] Each session consisted of a pre-drug baseline-recording interval, followed by five post-drug recording intervals extending to 5 hours after drug administration. In the pre-drug interval and in each of the post-drug intervals EEG was recorded while subjects performed computer-presented tasks and while they rested quietly. The computerized tasks included easy and difficult versions of a sustained attention working memory task, where difficulty was manipulated by varying working memory load. Subjective scales were also used to assess drowsiness, mood, and perceived drug effects. The entire procedure, including preparation time and rest breaks lasted approximately 7 hours. Transportation home was provided for the subjects at the end of each experimental session.

[5] = test system: healthy subjects; assay: Experiment 5: resting and task-related EEG and ERP; format: in vivo, human
Procedure: as §1, §2

[6] = test system: healthy subjects; assay: Experiment 5: subjective scales after alprazolam
Procedure: as §1, §2

[7] = test system: healthy adults; conditions: as reported for these AEDs; cited from earlier work
[8] = test system: healthy normal subjects; assay: Experiment 6: task performance; design: species or system human; conditions: in vivo
Procedure: The computerized tasks included a simple reaction time task and easy and difficult versions of the sustained attention WM task, in which difficulty was manipulated by varying WM load. Subjective scales were also administered to assess drowsiness, mood, and perceived drug effects. […] Transportation home was provided at the end of the sessions.

[9] = test system: healthy normal subjects; assay: Experiment 6: subjective scales after phenytoin; format: in vivo, human
Procedure: Experiment: The motivation behind this experiment was to evaluate how EEG and behavioral indices might be used to detect mild cognitive side effects of neurological medications, such as anti-epileptic drugs (AEDs). […] The computerized tasks included a simple reaction time task and easy and difficult versions of the sustained attention WM task, in which difficulty was manipulated by varying WM load. Subjective scales were also administered to assess drowsiness, mood, and perceived drug effects. […] Transportation home was provided at the end of the sessions.

[10] = Experiment 6: phenytoin blood serum levels; format: in vivo; conditions: human, oral, 10 mg/kg bodyweight, 5 hrs after 10 mg/kg bodyweight
[11] = test system: healthy normal subjects; assay: Experiment 6: resting and task-related EEG and ERP; format: in vivo, human
Procedure: The computerized tasks included a simple reaction time task and easy and difficult versions of the sustained attention WM task, in which difficulty was manipulated by varying WM load. Subjective scales were also administered to assess drowsiness, mood, and perceived drug effects. […] Transportation home was provided at the end of the sessions. Neurophysiological Alertness: To examine whether there was any neurophysiological evidence for decreased alertness, the EEG data were processed to eliminate artifacts and to compute power spectra and ERPs in each test condition. […] These physiological changes are consistent with the subjective reports of increased drowsiness following phenytoin.

[12] = blood serum; cited from earlier work
[13] = test system: healthy normal subjects; assay: Experiment 6: NCFC index
Source text: Neurocognitive Function Change Index: The hybrid multivariate function for assessing changes in neurocognitive function described in Experiment 2 was also applied to this dataset, computing degree of neurocognitive change from an average of the placebo test sessions. The resulting index scores were then computed as deviations from the pre-drug test administration index score to illustrate how neurocognitive function varied over the phenytoin test session.

## Nc1nnc(-c2cccc(Cl)c2Cl)c(N)n1 [lamotrigine]
[1]
  NCFC scores relative to pre-treatment baseline: impaired neurocognitive function was observed in response to both drugs

## Cc1nnc2n1-c1ccc(Cl)cc1C(c1ccccc1)=NC2 [alprazolam]
[2]
  Tpeak: 1 to 2 h
  plasma half-life: 6 to 16 h
[3]
  Pharmacodynamic profile: onset of cognitive impairment: rapid and relatively severe
[4]; after drug ingestion
  Time of largest effect on behavioral performance: 0.5 to 1 h
[4]; easy and difficult level
  Accuracy in working memory task vs placebo: less accurate
  Response speed in working memory task vs placebo: significantly slower
[4]; post drug ingestion
  Time of behavior returning towards baseline levels: 3.5 to 4 h
[5]; difficult task level
  P300 amplitude vs placebo: significantly reduced P300 amplitude
[5]; eyes closed state
  Resting beta power vs placebo: highly significant increase in beta power
  Resting theta power vs placebo: did not affect theta power in the eyes closed state
[5]; eyes open and eyes closed states
  Resting alpha power vs placebo: significantly reduced alpha power in both eyes open and eyes closed states
[5]; eyes open state
  Resting beta power vs placebo: same pattern of enhancement after drug ingestion, but to a lesser extent than in the eyes closed state
  Resting theta power vs placebo: significant decrease in theta power in the eyes open state
[5]; in vivo
  Task-related beta power vs placebo: significantly larger on the alprazolam day than on the placebo day
  Task-related frontal midline theta vs placebo: significantly attenuated
  Task-related slow and fast alpha signals vs placebo: significantly attenuated
[5]; low load task level and simple reaction time task
  P300 amplitude vs placebo: did not significantly differ between placebo and alprazolam conditions
[6]; 1 mg alprazolam
  Other subjective effects vs placebo: significantly more sleepy, more “spacey/out of it”, and more clumsy
  Visual analogue scale: feel the effects of the drug, vs placebo: heightened sense that they could “feel the effects of the drug”
[6]; after drug ingestion
  Onset of felt drug effects: 0.5 h
  Peak of felt drug effects: 1.5 to 2 h

## CC1(C)O[C@@H]2[C@@H](CO[C@@]3(COS(N)(=O)=O)OC(C)(C)O[C@@H]23)O1 [topiramate]
[7]
  Cognitive side effect profile: relatively worse cognitive side effect profile than lamotrigine
[1]
  NCFC scores relative to pre-treatment baseline: impaired neurocognitive function was observed in response to both drugs

## O=C1NC(=O)C(c2ccccc2)(c2ccccc2)N1 [phenytoin]
[8]
  Accuracy and reaction time during task performance vs placebo: neither accuracy nor reaction time during task performance differed on average
[9]; 10 mg/kg phenytoin
  Visual analogue scale: feel the effects of the drug, vs placebo: heightened sense that they could “feel the effects of the drug”
[9]; after drug administration
  Time of strongest sensations: about 4 hours
[9]; in vivo
  Subjective sleepiness vs placebo: marginally more sleepy
[10]; read-out: blood serum level range
  concentration at 5 h: 3500 to 13600 ng/mL
[10]; read-out: mean blood serum level
  concentration at 5 h: 9000 ng/mL
[11]; easy level of the task
  Attention-related enhancement of N160 response to target stimuli: significantly reduced in the phenytoin condition
[11]; eyes-closed
  Resting alpha band power vs placebo: decrease in power in the 9-11 Hz (alpha band) frequency range
[11]; eyes-closed, parieto-occipital electrodes
  Resting theta band power vs placebo: small increase in power in the 3-6 Hz (theta band) frequency range
[11]; in vivo
  Effects on centroparietal P300 component: heterogeneous
[11]; low load vs high load WM task
  Difficulty-related enhancement of frontal midline theta signal: reduced the difficulty-related enhancement of the frontal midline theta signal
[12]
  therapeutic range: 10 to 20 µg/mL
[13]; FIG. 12
  Pharmacodynamic profile: onset of cognitive impairment: slower to develop and relatively mild
[13]; following drug ingestion
  Period of acute impairment in individual subjects: 2 to 4 h
[13]; relative to pre-treatment baseline
  Average NCFC index scores: tended to decline relative to the pre-treatment baseline interval
